Data: publication PMC5084074 (ACS Central Science, 2016)
≈ marks a conversion by molar mass, not a printed value.

Columns and labels:
[1] = rat models; cited from earlier work
[2] = DOSY NMR of saturated phenytoin with increasing polymer concentration; assay type: physicochemical; conditions: deuterated PBS, poly(NIPAm70-co-DMA30) concentration increased (up to 1000 μg/mL)
[3] = aqueous settings; cited from earlier work

Row | translational diffusion coefficient (D0) of phenytoin [2] | Structure (SMILES) | AUC over 24 h [1] | solubility [3]
1 | – | O=C1NC(c2ccccc2)(c2ccccc2)C(=O)N1COP(=O)(O)O [fosphenytoin] | 1860 ± 310 μg/mL-min | –
2 | 3.72 ± 0.19 × 10^–10 m^2/s | O=C1NC(=O)C(c2ccccc2)(c2ccccc2)N1 [phenytoin] | – | ~30 µg/mL (≈ 119 µM)
